Like-named read-outs stand apart in the source and are kept apart here.
Assays:
Assay in all cases: biochemical
Set-up in all cases: Reaction Biology 371-kinase panel at Km ATP, per cent enzyme activity relative to DMSO, single dose in duplicate
MSK1/RPS6KA5 = MSK1/RPS6KA5 (Homo sapiens, UniProt O75582); conditions: duplicate measurements, Km ATP
How it was run: (§1)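 First, kinases from a 371-member panel were exposed in vitro to 300 nM inhibitor. Next, % enzyme activity versus DMSO was computed. Finally, IC50s were derived by sigmoidal dose-response fitting with variable slope and a zero bottom constraint.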

GRK3 = GRK3 (Homo sapiens, UniProt P35626); conditions: duplicate measurements, Km ATP
How it was run: as §1

KHS/MAP4K5 = KHS/MAP4K5 (Homo sapiens, UniProt Q9Y4K4); conditions: duplicate measurements, Km ATP
How it was run: as §1

STK38/NDR1 = STK38/NDR1 (Homo sapiens, UniProt Q15208); conditions: duplicate measurements, Km ATP
How it was run: as §1

MYLK4 = MYLK4 (Homo sapiens, UniProt Q86YV6); conditions: duplicate measurements, Km ATP
How it was run: as §1

ERK7/MAPK15 = ERK7/MAPK15 (Homo sapiens, UniProt Q8TD08); conditions: duplicate measurements, Km ATP
How it was run: as §1

FGFR1 = FGFR1 (Homo sapiens, UniProt P11362); conditions: duplicate measurements, Km ATP
How it was run: as §1

TRKC = molecular target: T1, TRKC (Homo sapiens, UniProt Q16288); conditions: duplicate measurements, Km ATP
T1 construct: gene NTRK3
How it was run: as §1

PKA = molecular target: T2, PKA (Homo sapiens, UniProt P17612); conditions: duplicate measurements, Km ATP
T2 construct: gene PRKACA
How it was run: as §1

PKCg = molecular target: T3, PKCg (Homo sapiens, UniProt P05129); conditions: duplicate measurements, Km ATP
T3 construct: gene PRKCG
How it was run: as §1

GLK/MAP4K3 = GLK/MAP4K3 (Homo sapiens, UniProt Q8IVH8); conditions: duplicate measurements, Km ATP
How it was run: as §1

STK33 = STK33 (Homo sapiens, UniProt Q9BYT3); conditions: duplicate measurements, Km ATP
How it was run: as §1

IGF1R = IGF1R (Homo sapiens, UniProt P08069); conditions: duplicate measurements, Km ATP
How it was run: as §1

SNARK/NUAK2 = SNARK/NUAK2 (Homo sapiens, UniProt Q9H093); conditions: duplicate measurements, Km ATP; read-out: % Enzyme Activity (relative to DMSO controls) / TP-0005801 (0.3µM) / Data 1
How it was run: as §1

STK39/STLK3 = STK39/STLK3 (Homo sapiens, UniProt Q9UEW8); conditions: duplicate measurements, Km ATP
How it was run: as §1

CK2a = molecular target: T4, CK2a (Homo sapiens, UniProt P68400); conditions: duplicate measurements, Km ATP
T4 construct: gene CSNK2A1
How it was run: as §1

IRR/INSRR = IRR/INSRR (Homo sapiens, UniProt P14616); conditions: duplicate measurements, Km ATP
How it was run: as §1

TSSK2 = TSSK2 (Homo sapiens, UniProt Q96PF2); conditions: duplicate measurements, Km ATP
How it was run: as §1

AKT2 = AKT2 (Homo sapiens, UniProt P31751); conditions: duplicate measurements, Km ATP
How it was run: as §1

FGFR4 = FGFR4 (Homo sapiens, UniProt P22455); conditions: duplicate measurements, Km ATP
How it was run: as §1

[1] = read-out: % Enzyme Activity (relative to DMSO controls) / TP-0005801 (0.3µM) / Data 1
[2] = read-out: % Enzyme Activity (relative to DMSO controls) / TP-0005801 (0.3µM) / Data 2

Chain of IRR/INSRR (P14616 whole entry): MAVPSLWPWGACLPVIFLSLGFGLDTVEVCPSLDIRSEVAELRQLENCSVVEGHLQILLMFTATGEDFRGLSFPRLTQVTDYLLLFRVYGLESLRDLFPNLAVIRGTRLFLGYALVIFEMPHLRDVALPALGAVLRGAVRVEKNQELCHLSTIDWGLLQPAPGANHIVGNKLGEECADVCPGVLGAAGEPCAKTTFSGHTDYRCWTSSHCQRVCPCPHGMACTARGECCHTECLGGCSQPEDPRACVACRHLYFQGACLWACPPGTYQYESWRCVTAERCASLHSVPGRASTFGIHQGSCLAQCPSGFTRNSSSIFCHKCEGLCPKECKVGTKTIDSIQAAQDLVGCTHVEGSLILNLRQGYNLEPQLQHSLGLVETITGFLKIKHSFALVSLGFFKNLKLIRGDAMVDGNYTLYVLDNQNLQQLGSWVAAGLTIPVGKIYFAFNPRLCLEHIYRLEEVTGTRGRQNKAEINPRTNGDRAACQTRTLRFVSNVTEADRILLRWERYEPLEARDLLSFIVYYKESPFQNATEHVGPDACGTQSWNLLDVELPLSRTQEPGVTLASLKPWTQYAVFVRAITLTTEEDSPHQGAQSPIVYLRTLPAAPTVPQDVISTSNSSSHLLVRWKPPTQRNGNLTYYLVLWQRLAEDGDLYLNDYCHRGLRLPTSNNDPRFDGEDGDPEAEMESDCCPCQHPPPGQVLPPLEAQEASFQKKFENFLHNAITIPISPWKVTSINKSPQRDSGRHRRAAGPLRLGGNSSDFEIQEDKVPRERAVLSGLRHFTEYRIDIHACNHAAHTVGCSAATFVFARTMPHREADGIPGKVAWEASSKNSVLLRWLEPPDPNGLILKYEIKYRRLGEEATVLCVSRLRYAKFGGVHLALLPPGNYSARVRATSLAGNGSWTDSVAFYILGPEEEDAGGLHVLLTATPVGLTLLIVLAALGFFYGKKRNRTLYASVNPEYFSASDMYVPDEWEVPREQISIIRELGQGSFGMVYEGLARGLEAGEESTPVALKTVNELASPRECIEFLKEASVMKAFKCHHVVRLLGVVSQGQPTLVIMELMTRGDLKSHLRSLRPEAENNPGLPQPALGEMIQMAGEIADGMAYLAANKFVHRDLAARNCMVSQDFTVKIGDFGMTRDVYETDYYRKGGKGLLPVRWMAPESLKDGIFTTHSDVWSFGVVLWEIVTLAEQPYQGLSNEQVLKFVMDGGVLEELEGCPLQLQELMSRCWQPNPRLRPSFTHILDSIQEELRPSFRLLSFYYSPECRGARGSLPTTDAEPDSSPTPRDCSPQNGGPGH
Chain of STK33 (Q9BYT3 whole entry): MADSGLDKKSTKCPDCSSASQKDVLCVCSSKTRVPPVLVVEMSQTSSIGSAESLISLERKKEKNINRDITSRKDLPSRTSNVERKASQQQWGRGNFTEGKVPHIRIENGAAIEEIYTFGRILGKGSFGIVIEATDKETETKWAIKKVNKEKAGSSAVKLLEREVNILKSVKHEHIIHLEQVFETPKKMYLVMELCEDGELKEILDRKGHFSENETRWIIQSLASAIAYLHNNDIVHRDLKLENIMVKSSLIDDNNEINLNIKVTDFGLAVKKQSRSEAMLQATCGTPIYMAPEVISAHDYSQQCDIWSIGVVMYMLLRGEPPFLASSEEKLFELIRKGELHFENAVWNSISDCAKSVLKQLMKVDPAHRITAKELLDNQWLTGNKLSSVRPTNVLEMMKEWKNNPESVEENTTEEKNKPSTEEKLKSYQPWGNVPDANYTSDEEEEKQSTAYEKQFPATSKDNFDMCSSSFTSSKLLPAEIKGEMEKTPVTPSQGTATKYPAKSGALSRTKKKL
Chain of GLK/MAP4K3 (Q8IVH8 whole entry): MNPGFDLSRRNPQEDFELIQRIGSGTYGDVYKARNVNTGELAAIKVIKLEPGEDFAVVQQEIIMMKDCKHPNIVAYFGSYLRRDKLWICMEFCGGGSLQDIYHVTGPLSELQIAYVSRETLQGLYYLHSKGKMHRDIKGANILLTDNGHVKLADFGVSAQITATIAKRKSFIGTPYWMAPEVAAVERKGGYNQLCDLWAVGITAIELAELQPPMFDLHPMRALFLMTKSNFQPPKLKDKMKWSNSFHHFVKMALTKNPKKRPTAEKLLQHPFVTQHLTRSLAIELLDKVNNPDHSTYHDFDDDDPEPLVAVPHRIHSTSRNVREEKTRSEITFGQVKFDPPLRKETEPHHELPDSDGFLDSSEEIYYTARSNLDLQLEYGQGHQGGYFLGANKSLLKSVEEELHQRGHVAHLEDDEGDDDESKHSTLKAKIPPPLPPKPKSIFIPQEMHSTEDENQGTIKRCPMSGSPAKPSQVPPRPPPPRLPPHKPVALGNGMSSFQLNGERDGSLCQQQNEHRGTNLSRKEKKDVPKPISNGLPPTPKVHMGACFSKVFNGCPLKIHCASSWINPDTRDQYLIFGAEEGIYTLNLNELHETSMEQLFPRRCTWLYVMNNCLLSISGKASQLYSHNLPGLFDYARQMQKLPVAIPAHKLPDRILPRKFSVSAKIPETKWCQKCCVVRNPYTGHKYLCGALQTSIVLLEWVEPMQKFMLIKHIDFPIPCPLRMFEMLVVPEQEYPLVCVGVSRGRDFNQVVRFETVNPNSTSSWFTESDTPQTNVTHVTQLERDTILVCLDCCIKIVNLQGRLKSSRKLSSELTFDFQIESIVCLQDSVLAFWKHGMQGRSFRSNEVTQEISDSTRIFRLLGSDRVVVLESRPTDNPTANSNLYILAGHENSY
Chain of ERK7/MAPK15 (Q8TD08 whole entry): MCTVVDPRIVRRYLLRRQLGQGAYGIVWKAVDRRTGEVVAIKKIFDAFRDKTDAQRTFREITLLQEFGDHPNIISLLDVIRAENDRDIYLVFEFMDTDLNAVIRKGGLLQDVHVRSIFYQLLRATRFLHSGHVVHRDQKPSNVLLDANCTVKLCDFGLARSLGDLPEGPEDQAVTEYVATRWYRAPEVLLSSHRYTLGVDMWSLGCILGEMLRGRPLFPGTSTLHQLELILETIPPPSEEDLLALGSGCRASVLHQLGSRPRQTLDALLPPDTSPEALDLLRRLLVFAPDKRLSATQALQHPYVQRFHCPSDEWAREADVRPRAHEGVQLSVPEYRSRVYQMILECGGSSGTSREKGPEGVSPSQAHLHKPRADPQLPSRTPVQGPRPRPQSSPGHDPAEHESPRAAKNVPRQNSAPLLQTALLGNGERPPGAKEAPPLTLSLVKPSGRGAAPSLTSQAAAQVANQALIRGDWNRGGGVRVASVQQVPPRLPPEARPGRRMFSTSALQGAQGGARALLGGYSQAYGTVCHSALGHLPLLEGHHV
Chain of MSK1/RPS6KA5 (O75582 whole entry): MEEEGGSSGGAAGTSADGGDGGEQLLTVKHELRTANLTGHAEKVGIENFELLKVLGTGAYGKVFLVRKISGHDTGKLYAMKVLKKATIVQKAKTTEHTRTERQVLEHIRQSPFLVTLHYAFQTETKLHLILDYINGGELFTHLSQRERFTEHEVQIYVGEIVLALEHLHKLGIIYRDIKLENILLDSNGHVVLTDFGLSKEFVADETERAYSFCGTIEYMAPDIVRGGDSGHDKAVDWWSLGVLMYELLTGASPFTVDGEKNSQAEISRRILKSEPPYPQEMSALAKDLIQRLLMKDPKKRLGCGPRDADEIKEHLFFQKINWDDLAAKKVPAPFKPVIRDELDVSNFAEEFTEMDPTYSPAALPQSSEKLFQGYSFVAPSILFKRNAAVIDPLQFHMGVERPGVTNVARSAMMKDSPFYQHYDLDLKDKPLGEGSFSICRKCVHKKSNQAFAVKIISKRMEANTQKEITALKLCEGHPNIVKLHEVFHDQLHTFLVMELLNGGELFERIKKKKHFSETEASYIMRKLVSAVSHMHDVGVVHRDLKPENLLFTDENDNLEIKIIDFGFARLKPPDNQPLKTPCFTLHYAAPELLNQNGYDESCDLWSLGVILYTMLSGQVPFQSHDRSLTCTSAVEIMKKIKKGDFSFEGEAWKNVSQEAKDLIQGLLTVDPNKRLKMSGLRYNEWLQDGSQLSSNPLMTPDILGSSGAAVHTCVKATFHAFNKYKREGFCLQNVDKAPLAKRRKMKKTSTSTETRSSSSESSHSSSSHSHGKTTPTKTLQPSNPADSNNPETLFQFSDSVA
Chain of FGFR4 (P22455 whole entry): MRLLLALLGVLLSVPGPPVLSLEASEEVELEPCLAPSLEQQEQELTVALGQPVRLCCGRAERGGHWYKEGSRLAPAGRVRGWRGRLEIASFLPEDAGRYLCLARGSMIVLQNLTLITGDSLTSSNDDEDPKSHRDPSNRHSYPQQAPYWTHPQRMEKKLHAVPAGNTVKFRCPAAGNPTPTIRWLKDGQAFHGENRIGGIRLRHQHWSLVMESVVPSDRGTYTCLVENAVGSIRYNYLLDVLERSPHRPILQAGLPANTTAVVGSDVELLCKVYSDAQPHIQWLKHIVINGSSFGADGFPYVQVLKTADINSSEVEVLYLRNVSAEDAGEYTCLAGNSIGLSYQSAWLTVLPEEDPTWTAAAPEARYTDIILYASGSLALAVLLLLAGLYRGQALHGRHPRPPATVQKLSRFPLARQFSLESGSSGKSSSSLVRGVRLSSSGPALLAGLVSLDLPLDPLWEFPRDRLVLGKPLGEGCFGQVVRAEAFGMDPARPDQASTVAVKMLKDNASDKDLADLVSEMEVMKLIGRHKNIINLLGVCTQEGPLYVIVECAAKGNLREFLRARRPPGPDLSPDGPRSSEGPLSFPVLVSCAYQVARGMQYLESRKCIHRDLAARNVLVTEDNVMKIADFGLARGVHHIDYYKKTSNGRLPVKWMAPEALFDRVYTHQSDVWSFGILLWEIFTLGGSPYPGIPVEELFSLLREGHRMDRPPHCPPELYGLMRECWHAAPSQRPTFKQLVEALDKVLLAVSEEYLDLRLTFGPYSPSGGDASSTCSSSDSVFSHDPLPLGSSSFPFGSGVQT

In the case of `COc1cc(N2CCN(C)CC2)c(C)cc1Nc1ncc(Br)c(Nc2cccnc2N(C)C)n1` [TP-5801], the remaining activity at 0.3 µM (MSK1/RPS6KA5; [1]) is reported as 127%, the remaining activity at 0.3 µM (MSK1/RPS6KA5; [2]) is reported as 123% and the remaining activity at 0.3 µM (GRK3; [1]) is reported as 93.9%. For the same compound, the remaining activity at 0.3 µM (GRK3; [2]) was 93%, the remaining activity at 0.3 µM (KHS/MAP4K5; [1]) was 90% and the remaining activity at 0.3 µM (KHS/MAP4K5; [2]) was 87%. It also gave a remaining activity at 0.3 µM (STK38/NDR1; [1]) of 38.8%, a remaining activity at 0.3 µM (STK38/NDR1; [2]) of 38.7% and a remaining activity at 0.3 µM (MYLK4; [1]) of 108%. For the same compound, the remaining activity at 0.3 µM (MYLK4; [2]) was 96.9%, the remaining activity at 0.3 µM (ERK7/MAPK15; [1]) was 97.2% and the remaining activity at 0.3 µM (ERK7/MAPK15; [2]) was 96.4%. For the same compound, the remaining activity at 0.3 µM (FGFR1; [1]) was 83.9%, the remaining activity at 0.3 µM (FGFR1; [2]) was 83.3% and the remaining activity at 0.3 µM (TRKC; [1]) was 109%. The remaining activity at 0.3 µM (TRKC; [2]) was 104%, the remaining activity at 0.3 µM (PKA; [1]) was 110% and the remaining activity at 0.3 µM (PKA; [2]) was 108%. For the same compound, the remaining activity at 0.3 µM (PKCg; [1]) was 115%, the remaining activity at 0.3 µM (PKCg; [2]) was 107% and the remaining activity at 0.3 µM (GLK/MAP4K3; [1]) was 35%. For the same compound, the remaining activity at 0.3 µM (GLK/MAP4K3; [2]) was 34.3%, the remaining activity at 0.3 µM (STK33; [1]) was 32.4% and the remaining activity at 0.3 µM (STK33; [2]) was 31.5%. For the same compound, the remaining activity at 0.3 µM (IGF1R; [1]) was 16.7%, the remaining activity at 0.3 µM (IGF1R; [2]) was 16.2% and the remaining activity at 0.3 µM (SNARK/NUAK2) was 30.2%. It also gave a remaining activity at 0.3 µM (STK39/STLK3; [1]) of 61.2%, a remaining activity at 0.3 µM (STK39/STLK3; [2]) of 61.1% and a remaining activity at 0.3 µM (CK2a; [1]) of 42.4%. The remaining activity at 0.3 µM (CK2a; [2]) was 41.8%, the remaining activity at 0.3 µM (IRR/INSRR; [1]) was 66.7% and the remaining activity at 0.3 µM (IRR/INSRR; [2]) was 65.2%. It also gave a remaining activity at 0.3 µM (TSSK2; [1]) of 88.4%, a remaining activity at 0.3 µM (TSSK2; [2]) of 86.9% and a remaining activity at 0.3 µM (AKT2; [1]) of 100%. It also gave a remaining activity at 0.3 µM (AKT2; [2]) of 99.9%, a remaining activity at 0.3 µM (FGFR4; [1]) of 79.9% and a remaining activity at 0.3 µM (FGFR4; [2]) of 77.6%.

— publication PMC8429728, “TNK1 is a ubiquitin-binding and 14-3-3-regulated kinase that can be targeted to block tumor growth” (Nature Communications, 2021)
